Source: patent publication US20150185241A1, “Tilidine Immunodetection” (Randox Laboratories Limited, priority 2013, published 2015)
Counter-ions that a name gives are not always drawn.

How the values were obtained:
[1] = test system: tilidine-specific antibody raised from Immunogen-II; test: Competitive ELISA (Example 8): different Ig fraction of antiserum raised to Immunogen II, hapten-HRP conjugate of Example 6 as detecting agent; assay type: binding; settings: for % cross-reactivity: relative to tilidine HCl = 100; for % cross-reactivity / IC50: different Ig fraction (Example 8); for IC50: standard concentration which produces 50% B/Bo
Protocol: The wells of an enhanced binding 96 well polystyrene microtitre plate were coated with a different Ig fraction (to that exemplified in Example 7) of the antiserum raised to Immunogen II (N-(carboxypropyl)nortilidine-BTG—example 5), diluted in 10 mMTris, pH 8.5 (125 μl/well). The appropriate antibody coating dilution was determined using standard ELISA checkerboard techniques. The plate was incubated for 2 hours at 37° C., washed 4 times over 10 minutes with Tris buffered saline, containing Tween 20 (TBST) and tapped dry. Standard solutions of tilidine hydrochloride (a mixture of the two trans isomers—the 1R, 2S and the 1S, 2R trans isomers) and bisnortilidine hydrochloride (a mixture of the two trans isomers—the 1R, 2S and the 1S, 2R trans isomers) were prepared in TBST at 0, 0.313 ng/ml, 0.625 ng/ml, 1.25 ng/ml, 2.5 ng/ml, 5 ng/ml, 10 ng/ml and 20 ng/ml and 50 μl of each was added to the appropriate wells. 75 μl of conjugate of example 6 (hapten-HRP), diluted in Tris buffer (pH7.2) containing EDTA, D-mannitol, sucrose, thimerosal and BSA was added to each of the wells. The appropriate dilution of conjugate was also determined using standard ELISA checkerboard techniques. The plate was incubated at 25° C. for 1 hour. Excess unbound conjugate was removed by washing 6 times over a 10-15 minute period with TBST. 125 μl of tetramethylbenzidine (TMB) substrate solution was added to each well of the plate that was then incubated for 20 minutes in the dark at room temperature. The reaction was terminated by the addition of 125 μl of 0.2M H2SO4 to each well. The absorbance was then measured at 450 nm using a microtitre plate reader.

[2] = test system: tilidine-specific antibody raised from Immunogen-II; test: Competitive ELISA (Example 7): Ig fraction of antiserum raised to Immunogen II, hapten-HRP conjugate of Example 6 as detecting agent; assay type: binding
Protocol: The wells of an enhanced binding 96 well polystyrene microtitre plate were coated with the Ig fraction of the antiserum raised to Immunogen II (N-(carboxypropyl)nortilidine-BTG—example 5), diluted in 10 mMTris, pH 8.5 (125 μl/well). The appropriate antibody coating dilution was determined using standard ELISA checkerboard techniques. The plate was incubated for 2 hours at 37° C., washed 4 times over 10 minutes with Tris buffered saline, containing Tween 20 (TBST) and tapped dry. Standard solutions of tilidine hydrochloride (a mixture of the two trans isomers—the 1R, 2S and the 1S, 2R trans isomers) and nortilidine hydrochloride (a mixture of the two trans isomers—the 1R, 2S and the 1S, 2R trans isomers) were prepared in TBST at 0, 0.625 ng/ml, 1.25 ng/ml, 2.5 ng/ml, 5 ng/ml, 10 ng/ml, 20 ng/ml and 40 ng/ml and 50 μl of each was added to the appropriate wells. 75 μl of conjugate of example 6 (hapten-HRP), diluted in Tris buffer (pH7.2) containing EDTA, D-mannitol, sucrose, thimerosal and BSA was added to each of the wells. The appropriate dilution of conjugate was also determined using standard ELISA checkerboard techniques. The plate was incubated at 25° C. for 1 hour. Excess unbound conjugate was removed by washing 6 times over a 10-15 minute period with TBST. 125 μl of tetramethylbenzidine (TMB) substrate solution was added to each well of the plate that was then incubated for 20 minutes in the dark at room temperature. The reaction was terminated by the addition of 125 μl of 0.2M H2SO4 to each well. The absorbance was then measured at 450 nm using a microtitre plate reader.

Row | Molecule | % cross-reactivity [1] | % B/Bo ([1]; standard 0.313 ng/ml) | % B/Bo ([1]; standard 0.625 ng/ml) | % B/Bo ([1]; standard 1.250 ng/ml) | % B/Bo ([1]; standard 2.500 ng/ml) | % B/Bo ([1]; standard 5.000 ng/ml) | % B/Bo ([1]; standard 10.000 ng/ml) | % B/Bo ([1]; standard 20.000 ng/ml) | IC50 [1] | % cross-reactivity ([2]; relative to tilidine HCl = 100, Ig fraction of Example 7) | % B/Bo ([2]; standard 0.625 ng/ml) | % B/Bo ([2]; standard 1.250 ng/ml) | % B/Bo ([2]; standard 2.500 ng/ml) | % B/Bo ([2]; standard 5.000 ng/ml) | % B/Bo ([2]; standard 10.000 ng/ml) | % B/Bo ([2]; standard 20.000 ng/ml) | % B/Bo ([2]; standard 40.000 ng/ml) | IC50 ([2]; standard concentration which produces 50% B/Bo, Ig fraction of Example 7)
1 | CCOC(=O)[C@]1(c2ccccc2)CCC=C[C@H]1N(C)C (racemic) [Tilidine HCl, (±)-trans-ethyl 2-(N,N-dimethylamino)-1-phenylcyclohex-3-enylcarboxylate] | 100% | 70% | 63% | 52% | 41% | 31% | 21% | 14% | 1.473 ng/mL | 100% | 63% | 55% | 46% | 37% | 28% | 20% | 14% | 1.820 ng/mL
2 | (±)-trans-ethyl 2-amino-1-phenylcyclohex-3-enylcarboxylate [Bisnortilidine HCl] | 14.73% | 86% | 82% | 76% | 68% | 59% | 50% | 39% | 10.0 ng/mL |  |  |  |  |  |  |  |  | 
